Converted amounts (≈) assume the structure as drawn.

IC50 data for eleven compounds are collected here from ChEMBL document CHEMBL4041476, “Design, selective alkylation and X-ray crystal structure determination of dihydro-indolyl-1,2,4-triazole-3-thione and its 3-benzylsulfanyl analogue as potent anticancer agents” (Eur J Med Chem, 2017).

The test system of one experiment is HepG2. The experiment can be described thus: Antiproliferative activity against human HepG2 cells after 48 hrs by SRB assay. Type of experiment: functional, cell-based. As to conditions: HepG2, 48 h. (In general: Sulforhodamine B stains cellular protein and so reports cell mass.)
A further experiment concerns MCF7. The experiment can be described thus: Antiproliferative activity against human MCF7 cells after 48 hrs by SRB assay. Type of experiment: functional, cell-based. As to conditions: MCF7, 48 h.

A word on the IC50: it is the concentration that inhibits the measured activity by half. A higher IC50 goes with a need for much substance. Turning to `S=c1nc(-c2cc3ccccc3[nH]2)[nH][nH]1`, the IC50 in the experiment with HepG2 turned out to be 15.9 µg/mL (≈ 73.5 µM); in the experiment with MCF7, 13.8 µg/mL (≈ 63.8 µM).
In the same order, the values of `CC(=O)N[C@@H]1[C@@H](OC(C)=O)[C@H](OC(C)=O)[C@@H](COC(C)=O)O[C@H]1n1nc(SCc2ccccc2)nc1-c1cc2ccccc2[nH]1` are 16.6 µg/mL (≈ 26.1 µM) and 15.9 µg/mL (≈ 25 µM).
The like results for `OCCn1nc(-c2cc3ccccc3[nH]2)nc1SCc1ccccc1` were, in that order, 12.1 µg/mL (≈ 34.5 µM) and 14.6 µg/mL (≈ 41.7 µM).
The like results for `OCCCn1nc(SCc2ccccc2)nc1-c1cc2ccccc2[nH]1` were, in that order, 11.5 µg/mL (≈ 31.6 µM) and 16.2 µg/mL (≈ 44.4 µM).
Take `CC(=O)N[C@@H]1[C@@H](OC(C)=O)[C@H](OC(C)=O)[C@@H](COC(C)=O)O[C@H]1n1nc(-c2cc3ccccc3[nH]2)nc1SCc1ccccc1`: the 50% inhibitory concentration (IC50) in the experiment with HepG2 and with MCF7 was greater than 100 µg/mL in each case.
As for `c1ccc(CSc2nc(-c3cc4ccccc4[nH]3)n[nH]2)cc1`, the 50% inhibitory concentration (IC50) is 3.58 µg/mL (≈ 11.7 µM) in the experiment on HepG2 and 4.53 µg/mL (≈ 14.8 µM) with MCF7.
As to `C=CCn1nc(-c2cc3ccccc3[nH]2)nc1SCc1ccccc1`, the IC50 was found to be 15.9 µg/mL (≈ 45.9 µM) in the experiment with HepG2 and 15.5 µg/mL (≈ 44.7 µM) in the experiment with MCF7.
For `CC(=O)OC[C@H]1O[C@@H](n2nc(SCc3ccccc3)nc2-c2cc3ccccc3[nH]2)[C@H](OC(C)=O)[C@@H](OC(C)=O)[C@@H]1OC(C)=O`, the IC50 with HepG2 was determined as 16.1 µg/mL (≈ 25.3 µM); with MCF7, 16 µg/mL (≈ 25.1 µM).
In the same order, the values of `c1ccc(CSc2nc(-c3cc4ccccc4[nH]3)nn2Cc2ccccc2)cc1` are 17.9 µg/mL (≈ 45.1 µM) and 10.8 µg/mL (≈ 27.2 µM).
As for `c1ccc(CSc2nc(-c3cc4ccccc4[nH]3)n(Cc3ccccc3)n2)cc1`, the IC50 amounted to 16.3 µg/mL (≈ 41.1 µM) in the experiment on HepG2 and 14.8 µg/mL (≈ 37.3 µM) in the experiment on MCF7.
In the same order, the values of `COc1cccc2c1C(=O)c1c(O)c3c(c(O)c1C2=O)C[C@@](O)(C(=O)CO)C[C@@H]3O[C@H]1C[C@H](N)[C@H](O)[C@H](C)O1` [DOXORUBICIN] are 4 µg/mL (≈ 7.36 µM) and 4 µg/mL (≈ 7.36 µM).
